Measurements: ChEMBL document CHEMBL3507680, “University of Dundee, Gates Library screen for HepG2 cell viability”

assay: Human HepG2 cell viability assay in 384 well format; assay type: toxicity, cell-based; parameters: dose 125 nL, time 70.5 hour; concentration not given beside the values; conditions: HepG2 cells, read-out: Inhibition

| SMILES | cytotoxicity at 70.5 h |
| --- | --- |
| CCCc1nc(C[S+]([O-])Cc2cn3cccc(C)c3n2)no1 (configuration not stated) | -3.84% |
| CC(=O)c1ccc(CNC(=O)c2cc(C#N)cn2C)nc1C | -4.66% |
| O=S(=O)(CC1CCCCO1)Nc1c(F)cccc1-n1cccn1 (configuration not stated) | -3.07% |
| O=C(NC1CCN(c2ncccc2F)C1)c1cccc(-n2ccnc2)c1 (configuration not stated) | -9.37% |
| Cc1csc(CCCNC(C)CC(=O)Nc2ccc(F)cc2)n1 (configuration not stated) | 5.43% |
| C=C(C)CNC(C)c1ccc(S(C)(=O)=O)c(F)c1 (configuration not stated) | -9.09% |
| Cc1ccn(-c2ccc(NCc3ccnc(N4CCCCC4)c3)nn2)n1 | -10.5% |
| O=C(COc1ccccc1C(F)(F)F)NCCNC(=O)c1ccccc1 | 12.9% |
| CC(C)c1noc(CS(=O)(=O)CC(=O)NCc2cccs2)n1 | -9.72% |
| COc1ccc(CC(=O)NC(CC(=O)O)c2ccc(F)cc2)cc1OC (configuration not stated) | -5.71% |
| COc1ccccc1CC(=O)NC(CC(=O)O)c1ccc(F)cc1 (configuration not stated) | -8.41% |
| CC(Sc1nnc(C2CC2)n1CC(N)=O)c1ccc(F)c(Cl)c1 (configuration not stated) | -6.61% |
| CC(Sc1nnc(C2CC2)n1CC(N)=O)c1ccc(Cl)cc1 (configuration not stated) | -8.5% |
| NC(=O)C(NC(=O)c1cc(Br)c[nH]1)c1ccccc1 (configuration not stated) | 10.8% |
| CC(C)CC(C#N)NC(=O)c1ccc(Oc2cccnc2)cc1 (configuration not stated) | -5.49% |
| Cc1ccn(-c2ccc(NCc3ccccc3F)nn2)n1 | 13.7% |
| CC(C)Sc1ccc(C(C)NC(=O)Cn2cccnc2=O)cc1 (configuration not stated) | -15.1% |
| O=c1[nH]c(N2CCN(C3CC3)CC2)nc2c1cnn2-c1ccccc1 | -6.97% |
| Cc1ccc(CNC(=O)c2oc3ccccc3c2CN(C)C)n1C | -6.83% |
| N#Cc1ccc(F)c(CNC(=O)NCCC(=O)NC2CCCC2)c1 | -3.12% |
| CC(C)(C)C(C#N)NC(=O)c1ccc(Oc2cccnc2)cc1 (configuration not stated) | -8.31% |
| Cc1nc(C2CCCN(C(=O)CCCOc3cccc(F)c3)C2)no1 (configuration not stated) | -16.6% |
| O=C(NC1CCN(CC2CC2)C1)c1ccc(N2CCC(O)CC2)cc1 (configuration not stated) | -7.24% |
| CNc1nc(CNC(=O)Nc2ccc(OC(C)C)cc2F)cs1 | -5.89% |

| SMILES | cytotoxicity at 70.5 h |
| --- | --- |
| CN1CCCC(NC(=O)c2ccc(C(=O)c3cc[nH]c3)cc2)C1 (configuration not stated) | -16.9% |
| Cn1cc(C(=O)N2CCOc3ccccc32)ccc1=O | -12.6% |
| Cc1ccc2c(c1)OCCN2C(=O)c1ccc(=O)n(C)c1 | -5.4% |
| O=C(O)c1ccc(CCNC(=O)C2(O)Cc3ccccc3C2)cc1 | -12.7% |
| COC(=O)CCCNC(=O)COc1ccccc1C(F)(F)F | -6.88% |
| CC(C)N(CC1CCCN(CC(N)=O)C1)C(=O)OC(C)(C)C (configuration not stated) | -12.8% |
| CCC(CC)CNC(=O)N(C)C(C)c1ccccn1 (configuration not stated) | 12.3% |
| CC(C)c1noc(CCCC(=O)NCCOc2ccccc2)n1 | -8.16% |
| CCN(CC)S(=O)(=O)CCNC(=O)N(C)C(C)c1ccccn1 (configuration not stated) | -8.05% |
| Cc1nc(CNC(=O)c2oc3ccccc3c2CN(C)C)oc1C | -8.24% |
| Cc1nc(C2CCCN2C(=O)COCCOc2ccccc2)no1 (configuration not stated) | 8.74% |
| N#CCSCCCN1CCCC(C(=O)N2CCCCCC2)C1 (configuration not stated) | -4.07% |
| Cc1nc(C2CCCN2C(=O)CCCOc2cccc(F)c2)no1 (configuration not stated) | -4.99% |
| Cn1cc(CN2CCN(Cc3nccn3C)CC2)cn1 | 29.1% |
| CC(C)c1csc(C2CCCN(C(=O)c3ccc(=O)n(C)n3)C2)n1 (configuration not stated) | 1.7% |
| CCn1c(C)nnc1CN(C)C1CCN(Cc2cnc(C)cn2)C1 (configuration not stated) | -0.885% |
| Cc1ccc(CNCc2nnc3n2CC(C(F)(F)F)CC3)cc1 (configuration not stated) | 1.57% |
| COc1ccccc1CNC(=O)C1=NN(c2ccc(C)cc2)C(=O)CN1 | -4.66% |
| Cc1noc(C2CCN(C(=O)c3c(C)noc3C)CC2)n1 | -10.7% |
| CC(O)CN1CCN(C(=O)c2cn(-c3ccccc3Cl)nn2)CC1 (configuration not stated) | -9.71% |
| CC(NC1(CNC(=O)CC(C)(C)C)CCOCC1)c1ccccc1 (configuration not stated) | -7.83% |
| CC(NC1(CNC(=O)Cn2cccn2)CCOCC1)c1ccccc1 (configuration not stated) | -6.45% |
| CCc1nc(CN2CCN(C(=O)COCc3ccccc3)CC2)no1 | -7.36% |
| Cc1cc(C)n(-c2cncc(NCCNC(=O)C(C)C)n2)n1 | -3.05% |

| SMILES | cytotoxicity at 70.5 h |
| --- | --- |
| Cc1ccc(NC(=O)NC(C)c2nc[nH]n2)s1 (configuration not stated) | -8.03% |
| Cc1ccc(C2CSCCN2C(=O)C2=CCCC2)o1 (configuration not stated) | -6.86% |
| COc1ccc(NC(=O)NC(C)c2nc[nH]n2)cc1 (configuration not stated) | -0.0192% |
| O=c1ccc(-c2ccccc2F)nn1CCN1CCCS1(=O)=O | -2.96% |
| Cc1cc(CN(C)Cc2cc3c(cc2OC(F)F)OCO3)on1 | -6.95% |
| CN(Cc1cc2c(cc1OC(F)F)OCO2)Cc1nccn1C | -3.97% |
| CCC(C)(NCC(=O)Nc1ccccc1)c1nc(C)cs1 (configuration not stated) | -4.87% |
| Cc1nn(C)c(N(C)C)c1CNCc1cccnc1 | 16.2% |
| Cn1cc(CNCCn2cccn2)c(-c2cccnc2)n1 | -4.81% |
| CN(CC1CC1)C(=O)CN(Cc1cccc(O)c1)C1CCC(O)CC1 (configuration not stated) | -6.77% |
| Cn1ncc2c(NCC3CCCN3c3cccnn3)ncnc21 (configuration not stated) | -3.62% |
| O=C(CCc1ccccc1F)NS(=O)(=O)c1ccc2c(c1)OCCO2 | 21.2% |
| COCc1nc(C(=O)N2CCCC2c2ccncc2)cs1 (configuration not stated) | -1.03% |
| COc1ccccc1OCCNCCn1cccn1 | -10.7% |
| Cc1cnn(CC(C)NCc2csc(-c3cccs3)n2)c1 (configuration not stated) | -22.3% |
| Clc1ccc(OCCNCCn2cccn2)cc1 | 22.1% |
| COCc1nc(C(=O)N2CCCC2c2cccc(C)c2)cs1 (configuration not stated) | -8.14% |
| Cc1ccc(-c2nc(CN3CCN(C(=O)C4CC4)CC3)cs2)o1 | -5.72% |
| Cc1ccc(-c2nc(CN3CCN(CC(=O)N(C)C)CC3)cs2)o1 | -5.37% |
| CC(NC(=O)NCCCN(C)S(C)(=O)=O)c1ccc(F)cc1 (configuration not stated) | 16.8% |
| CCOC(=O)C1CCN(Cc2csc(-c3ccc(C)o3)n2)CC1 | -3.12% |
| COc1c(CNCc2ccnc(N3CCCCC3)c2)c(C)nn1C | 24.3% |
| Cc1ccc(C(=O)N2CCC(c3n[nH]c(C4CC4)n3)CC2)cc1F | -7.97% |
| CN(C)CC(=O)N1CCN(C(=O)c2cccc3[nH]ncc23)CC1 | -8.09% |

| SMILES | cytotoxicity at 70.5 h |
| --- | --- |
| CCc1cccc(N2CCC(NC(=O)c3ccncc3)CC2)c1 | -4.49% |
| Cc1cccc(C(=O)N2CCN(C(=O)Cc3ccccn3)CC2)c1C | -2.92% |
| CCc1nc(CN2CCN(CC(O)c3ccccc3)CC2)no1 (configuration not stated) | 17.3% |
| CCc1noc(CN2CCN(CC(O)c3ccccc3)CC2)n1 (configuration not stated) | -3.73% |
| CC(C)c1nc(CN2CCN(CC(O)c3ccccc3)CC2)no1 (configuration not stated) | -4.77% |
| Cc1cnn(CC(C)NCc2csc(-c3ncccn3)n2)c1 (configuration not stated) | -2.17% |
| CCc1cccc(N2CCC(NC(=O)CCNC(N)=O)CC2)c1 | -6.16% |
| Cc1ccc(NC2CCN(C(=O)COc3cccc(F)c3)CC2)nn1 | 43.9% |
| Cc1nccn1C1CCCN(C(=O)c2ccnc(-n3ccnc3)c2)C1 (configuration not stated) | 10.7% |
| O=C(CCc1ccco1)N1CCCN(Cc2cscn2)CC1 | 11.4% |
| COc1cccc(NC(=O)NCC(O)c2ccc(F)cc2F)c1 (configuration not stated) | -6.35% |
| CC1CCCN(S(=O)(=O)NCc2ccccc2Cn2cncn2)C1 (configuration not stated) | -10.6% |
| CNC(=O)N1CCC(NC(=O)c2cnn(C)c2)CC1 | -11.2% |
| COc1cc(/C=C/c2ncc(C(=O)O)s2)cc(Cl)c1OC | 18.2% |
| CCOc1c(Cl)cc(/C=C/c2ncc(C(=O)O)s2)cc1OC | -18.4% |
| CCc1noc(CN2CCC(C(=O)Nc3cnn(CC)c3)CC2)n1 | -10.6% |
| CCCc1noc(CN2CCC(C(=O)Nc3cnn(CC)c3)CC2)n1 | -14.6% |
| O=C(c1ccnc(-n2ccnc2)c1)N1CCCC(n2ccnc2)C1 (configuration not stated) | -15% |
| Cc1nc(C)n(CC2CCCN2CC(=O)Nc2cc(C)on2)n1 (configuration not stated) | -8.96% |
| Cc1nc(C)n(CC2CCCCN2CC(=O)Nc2cc(C)on2)n1 (configuration not stated) | -13.4% |
| Cc1ccc(NC2CCN(C(=O)CCOCC(F)(F)F)CC2)nn1 | -2.83% |
| Cc1cc(NC(=O)CCN2CCCCC2Cn2cncn2)no1 (configuration not stated) | -15.1% |
| Cc1cc(C)n(CC2CCCCN2CCC(=O)Nc2cc(C)on2)n1 (configuration not stated) | -10.3% |
| Cc1nn(C)c(Cl)c1C1CCCN1CC(=O)NCc1ccco1 (configuration not stated) | -8.19% |

| SMILES | cytotoxicity at 70.5 h |
| --- | --- |
| Cc1cnc(C(=O)N2CCCC(n3cncn3)C2)cn1 (configuration not stated) | -4.15% |
| CC(=O)Nc1nc(C(=O)N2CCCC(n3cncn3)C2)cs1 (configuration not stated) | -11.2% |
| Cn1cc(C(=O)CC2CCCN2C(=O)c2coc3ccccc23)cn1 (configuration not stated) | -12.8% |
| Cn1cc(C(=O)CC2CCCN2C(=O)c2c[nH]c3ccccc23)cn1 (configuration not stated) | -13.9% |
| Cn1cc(C(=O)CC2CCCN2C(=O)c2ccncc2F)cn1 (configuration not stated) | -9.05% |
| Cc1nc(C)n(CC2CCCN(CCC(=O)Nc3cc(C)on3)C2)n1 (configuration not stated) | -9.8% |
| Cc1cnn(C2CCCN(C(=O)c3ccnc(-n4cncn4)c3)C2)c1 (configuration not stated) | -7.22% |
| COCCOc1ccccc1C(=O)NCCN(C)C(C)C | 16.8% |
| CC(C)N1CCN(C(=O)C(C)n2cncn2)CC1 (configuration not stated) | 5.67% |
| CC(C(=O)N1CCN(c2ncccn2)CC1)n1cncn1 (configuration not stated) | -9.39% |
| CC(C(=O)N1CCOCC1)n1cncn1 (configuration not stated) | -4.26% |
| Cc1ccc(-c2cnn(CC(=O)NC(C)C)c2)cc1 | -3.29% |
| COc1cc(CNCC2CNc3ccnn3C2)ccn1 (configuration not stated) | -3.41% |
| c1cc(CNCC2CNc3ccnn3C2)cc(OC2CCCCC2)n1 (configuration not stated) | -7.62% |
| Cc1cnn(CCC(=O)N2CCN(c3ccc(C#N)cn3)CC2)c1 | -3.08% |
| Cc1cc(C2CCCN2C(=O)NCc2c(C)cc(C)[nH]c2=O)on1 (configuration not stated) | -7.29% |
| Cc1cc(C)c(CNC(=O)N2CCCC2c2cc(C)on2)c(=O)[nH]1 (configuration not stated) | -7.12% |
| N#Cc1cccnc1N1CCCN(C(=O)CCn2cncn2)CC1 | -4.22% |
| CCN(CCNC(=O)c1cccc(C)c1C)C1CC1 | -4.1% |
| CC(C)Oc1ccccc1NC(=O)N1CCC(n2cncn2)CC1 | -3.08% |
| O=C1NCC(C(=O)Nc2ncc(Cc3ccc(F)cc3F)s2)N1 (configuration not stated) | -3.7% |
